One assay concerns Z-138 cells. Description: Z-138 Proliferation Assay (Cell Titer Glo). The following applies: Homo sapiens, 120 h, 5 days incubation. The format is cell-based. The text has this: [formula] Z-138 Proliferation Assay
Z-138 suspension cells were purchased from ATCC (American Type Culture Collection, Manassas, Va.). RPMI/Glutamax medium, penicillin-streptomycin, heat inactivated fetal bovine serum were purchased from Life Technologies, Grand Island, N.Y., USA. V-bottom polypropylene 384-well plates were purchased from Greiner Bio-One, Monroe, N.C., USA. Cell culture 384-well white opaque plates were purchased from Perkin Elmer, Waltham, Mass., USA. Cell-Titer Glo® was purchased from Promega Corporation, Madison, Wis., USA. SpectraMax M5 plate reader was purchased from Molecular Devices LLC, Sunnyvale, Calif., USA.
Z-138 suspension cells were maintained in growth medium (RPMI 1640 supplemented with 10% v/v heat inactivated fetal bovine serum and cultured at 37° C. under 5% CO2. Under assay conditions, cells were incubated in assay medium (RPMI 1640 supplemented with 10% v/v heat inactivated fetal bovine serum and 100 units/mL penicillin-streptomycin) at 37° C. under 5% CO2.
For the assessment of the effect of compounds on the proliferation of the Z-138 cell line, exponentially growing cells were plated in 384-well white opaque plates at a density of 10,000 cells/ml in a final volume of 50 μl of assay medium. A compound source plate was prepared by performing triplicate nine-point 3-fold serial dilutions in DMSO, beginning at 10 mM (final top concentration of compound in the assay was 20 μM and the DMSO was 0.2%). A 100 nL aliquot from the compound stock plate was added to its respective well in the cell plate. […] After addition of compounds, assay plates were incubated for 5 days at 37° C., 5% CO2, relative humidity >90%.
Cell viability was measured by quantitation of ATP present in the cell cultures, adding 35 μl of Cell Titer Glo® reagent to the cell plates. Luminescence was read in the SpectraMax M5 microplate reader. The concentration of compound inhibiting cell viability by 50% was determined using a 4-parametric fit of the normalized dose response curves.
(In ATP-based viability assays light output follows the ATP content of the culture.)

Assay [1] deals with symmetric di-methyl arginine in Z-138 cells. Description: Z-138 Methylation Assay (In Cell Western for symmetric di-methyl arginine and DNA content). It is filed as cell-based. The settings on record: Homo sapiens, 96 hours incubation, read-out: ICW EC50. The text has this: [formula] Where top and bottom are the normally allowed to float, but may be fixed at 100 or 0 respectively in a 3-parameter fit. The Hill Coefficient normally allowed to float but may also be fixed at 1 in a 3-parameter fit. Y is the % inhibition and X is the compound concentration. Z-138 Methylation Assay
Z-138 suspension cells were purchased from ATCC (American Type Culture Collection, Manassas, Va.). RPMI/Glutamax medium, penicillin-streptomycin, heat inactivated fetal bovine serum, and D-PBS were purchased from Life Technologies, Grand Island, N.Y., USA. Odyssey blocking buffer, 800CW goat anti-rabbit IgG (H+L) antibody, and Licor Odyssey infrared scanner were purchased from Licor Biosciences, Lincoln, Nebr., USA. Symmetric di-methyl arginine antibody was purchased from EMD Millipore, Billerica, Mass., USA. 16% Paraformaldehyde was purchased from Electron Microscopy Sciences, Hatfield, Pa., USA.
Z-138 suspension cells were maintained in growth medium (RPMI 1640 supplemented with 10% v/v heat inactivated fetal bovine serum and 100 units/mL penicillin-streptomycin) and cultured at 37° C. under 5% CO2.
Cell Treatment, in Cell Western (ICW) for Detection of Symmetric Di-Methyl Arginine and DNA Content.
Z-138 cells were seeded in assay medium at a concentration of 50,000 cells per mL to a 384-well cell culture plate with 50 μL per well. Compound (100 nL) from 384 well source plates was added directly to 384 well cell plate. Plates were incubated at 37° C., 5% CO2 for 96 hours. After four days of incubation, 40 μL of cells from incubated plates were added to poly-D-lysine coated 384 well culture plates (BD Biosciences 356697). Plates were incubated at room temperature for 30 minutes then incubated at 37° C., 5% CO2 for 5 hours. After the incubation, 40 μL per well of 8% paraformaldehyde in PBS (16% paraformaldahyde was diluted to 8% in PBS) was added to each plate and incubated for 30 minutes. Plates were transferred to a Biotek 405 plate washer and washed 5 times with 100 μL per well of wash buffer (IX PBS with 0.1% Triton X-100 (v/v)). Next 30 μL per well of Odyssey blocking buffer were added to each plate and incubated 1 hour at room temperature. Blocking buffer was removed and 20 μL per well of primary antibody was added (symmetric di-methyl arginine diluted 1:100 in Odyssey buffer with 0.1% Tween 20 (v/v)) and plates were incubated overnight (16 hours) at 4° C. Plates were washed 5 times with 100 μL per well of wash buffer. Next 20 μL per well of secondary antibody was added (1:200 800CW goat anti-rabbit IgG (H+L) antibody, 1:1000 DRAQ5 (Biostatus limited) in Odyssey buffer with 0.1% Tween 20 (v/v)) and incubated for 1 hour at room temperature. The plates were washed 5 times with 100 μL per well wash buffer then 1 time with 100 μL per well of water. Plates were allowed to dry at room temperature then imaged on the Licor Odyssey machine which measures integrated intensity at 700 nm and 800 nm wavelengths. Both 700 and 800 channels were scanned.
First, the ratio for each well was determined by:
Each plate included fourteen control wells of DMSO only treatment (minimum inhibition) as well as fourteen control wells for maximum inhibition treated with 3 μM of a reference compound (Background wells). The average of the ratio values for each control type was calculated and used to determine the percent inhibition for each test well in the plate. Reference compound was serially diluted three-fold in DMSO for a total of nine test concentrations, beginning at 3 μM. Percent inhibition was determined and IC50 curves were generated using triplicate wells per concentration of compound. […]

Another assay addresses PRMT5/MEP50 (Homo sapiens (Human), UniProt O14744). Put plainly: PRMT5 Biochemical Assay (PRMT5/MEP50 enzyme assay on peptide substrate, 3H-SAM Flashplate). The following applies: PRMT5/MEP50 4 nM, 3H-SAM 75 nM, peptide 40 nM. The text has this:
S-adenosylmethionine (SAM), S-adenosylhomocysteine (SAH), bicine, KCl, Tween20, dimethylsulfoxide (DMSO), bovine skin gelatin (BSG), and Tris(2-carboxyethyl)phosphine hydrochloride solution (TCEP) were purchased from Sigma-Aldrich at the highest level of purity possible. ^3H-SAM was purchase from American Radiolabeled Chemicals with a specific activity of 80 Ci/mmol. 384-well streptavidin Flashplates were purchased from PerkinElmer.
Peptide representative of human histone H4 residues 1-15 was synthesized with a C-terminal linker-affinity tag motif and a C-terminal amide cap by 21st Century Biochemicals. The peptide was high high-performance liquid chromatography (HPLC) purified to greater than 95% purity and confirmed by liquid chromatography mass spectrometry (LC-MS). The sequence was Ac-[…][K-Biot]-amide (SEQ ID NO.: 3).
Full-length human PRMT5 (NM_006109.3) transcript variant 1 clone was amplified from a fetal brain cDNA library, incorporating flanking 5′ sequence encoding a FLAG tag ([…]) (SEQ ID NO.: 4) fused directly to Ala 2 of PRMT5. Full-length human MEP50 (NM_024102) clone was amplified from a human testis cDNA library incorporating a 5′ sequence encoding a 6-histidine tag (MHHHHHH) (SEQ ID NO.: 5) fused directly to Arg 2 of MEP50. The amplified genes were sublconed into pENTR/D/TEV (Life Technologies) and subsequently transferred by Gateway™ attL x attR recombination to pDEST8 baculvirus expression vector (Life Technologies).
Recombinant baculovirus and Baculovirus-Infected Insect Cells (BIIC) were generated according to Bac-to-Bac kit instructions (Life Technologies) and Wasilko, 2006, respectively. Protein over-expression was accomplished by infecting exponentially growing Spodoptera frugiperda (SF9) cell culture at 1.2×10^6 cell/ml with a 5000 fold dilution of BIIC stock. Infections were carried out at 27° C. for 72 hours, harvested by centrifugation, and stored at −80° C. for purification.
Flag-PRMT5/6His-MeP50 was eluted with 300 mM Imidazole in the same buffer. The purity of recovered protein was 87%. Reference: Wasilko, D. J. and S. E. Lee: “TIPS: titerless infected-cells preservation and scale-up” Bioprocess J., 5 (2006), pp. 29-32.
General Procedure for PRMT5/MEP50 Enzyme Assays on Peptide Substrates.
The assays were all performed in a buffer consisting of 20 mM Bicine (pH=7.6), 1 mM TCEP, 0.005% BSG, and 0.002% Tween20, prepared on the day of use. Compounds in 100% DMSO (1 ul) were spotted into a polypropylene 384-well V-bottom plates (Greiner) using a Platemate Plus outfitted with a 384-channel head (Thermo Scientific). DMSO (1 ul) was added to Columns 11, 12, 23, 24, rows A-H for the maximum signal control and 1 ul of SAH, a known product and inhibitor of PRMT5/MEP50, was added to columns 11, 12, 23, 24, rows I-P for the minimum signal control. A cocktail (40 ul) containing the PRMT5/MEP50 enzyme and the peptide was added by Multidrop Combi (Thermo-Fisher). The compounds were allowed to incubate with PRMT5/MEP50 for 30 min at 25 degrees Celsius, then a cocktail (10 ul) containing ^3H-SAM was added to initiate the reaction (final volume=51 ul). The final concentrations of the components were as follows: PRMT5/MEP50 was 4 nM, ^3H-SAM was 75 nM, peptide was 40 nM, SAH in the minimum signal control wells was 100 uM, and the DMSO concentration was 1%. The assays were stopped by the addition of non-radioactive SAM (10 ul) to a final concentration of 600 uM, which dilutes the ^3H-SAM to a level where its incorporation into the peptide substrate is no longer detectable. 50 ul of the reaction in the 384-well polypropylene plate was then transferred to a 384-well Flashplate and the biotinylated peptides were allowed to bind to the streptavidin surface for at least 1 hour before being washed three times with 0.1% Tween20 in a Biotek ELx405 plate washer. […]

Chain of PRMT5/MEP50 (O14744 other isoform, or with tags, fused parts or gaps): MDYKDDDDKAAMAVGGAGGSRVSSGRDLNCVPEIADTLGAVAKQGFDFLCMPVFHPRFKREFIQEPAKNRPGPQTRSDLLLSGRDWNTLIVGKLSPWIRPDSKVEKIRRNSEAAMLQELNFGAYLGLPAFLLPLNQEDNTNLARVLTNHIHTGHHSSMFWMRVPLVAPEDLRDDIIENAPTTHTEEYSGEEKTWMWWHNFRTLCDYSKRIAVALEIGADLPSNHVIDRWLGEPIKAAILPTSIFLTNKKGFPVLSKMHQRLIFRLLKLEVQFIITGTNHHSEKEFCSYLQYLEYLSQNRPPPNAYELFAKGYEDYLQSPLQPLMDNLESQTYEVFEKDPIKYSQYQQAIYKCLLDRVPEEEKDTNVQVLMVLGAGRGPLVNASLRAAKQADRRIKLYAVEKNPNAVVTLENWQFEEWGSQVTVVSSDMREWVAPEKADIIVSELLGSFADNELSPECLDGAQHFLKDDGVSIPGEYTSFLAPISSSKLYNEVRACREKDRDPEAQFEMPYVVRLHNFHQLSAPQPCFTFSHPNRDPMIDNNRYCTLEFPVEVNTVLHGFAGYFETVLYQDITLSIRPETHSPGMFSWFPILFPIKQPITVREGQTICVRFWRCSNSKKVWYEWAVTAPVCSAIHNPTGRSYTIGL
Chain of PRMT5/MEP50 (Q9BQA1 other isoform, or with tags, fused parts or gaps partner): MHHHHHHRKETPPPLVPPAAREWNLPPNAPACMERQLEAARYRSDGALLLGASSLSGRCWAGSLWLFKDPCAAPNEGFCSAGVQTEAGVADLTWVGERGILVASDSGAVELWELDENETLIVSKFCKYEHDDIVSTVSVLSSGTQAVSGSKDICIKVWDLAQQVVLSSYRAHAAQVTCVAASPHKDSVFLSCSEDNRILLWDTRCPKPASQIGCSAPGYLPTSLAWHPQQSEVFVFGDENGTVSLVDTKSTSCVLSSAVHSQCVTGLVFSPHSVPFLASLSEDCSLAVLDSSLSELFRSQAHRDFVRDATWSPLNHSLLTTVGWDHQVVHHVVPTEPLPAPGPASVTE

Regarding `O=C(COc1cccc2cccnc12)NC[C@H](O)CN1Cc2ccccc2C1` [compound 4], the EC50 is 1 to 10 µM in the assay with Z-138 cells and 0.101 to 1 µM in assay [1].

As to `OC(COc1cccc(CNC2CCCC2)c1)CN1Cc2ccccc2C1` (stereo not shown) [compound 20, 1-(3-((cyclopentylamino)methyl)phenoxy)-3-(isoindolin-2-yl)propan-2-ol], the EC50 with Z-138 cells was 10 to 50 µM. The IC50 on PRMT5/MEP50 was in the range of 1 to 10 µM.

With `CN(C)S(=O)(=O)c1ccccc1OCC(=O)NC[C@@H](O)CN1Cc2ccccc2C1` [compound 21], the 50% effective concentration (EC50) with Z-138 cells is above 20 µM; in assay [1] it was 0.101 to 1 µM.

As for `CN(C)S(=O)(=O)c1ccccc1OCC(=O)NC[C@H](O)CN1Cc2ccccc2C1` [compound 23], the half-maximal effective concentration (EC50) was 0.101 to 1 µM with Z-138 cells and below 0.1 µM in assay [1].

Consider `CN1CCOc2cccc(OCC(=O)NC[C@H](O)CN3Cc4ccccc4C3)c21` [compound 26], for which the EC50 in the assay on Z-138 cells is above 20 µM; in assay [1] it was 0.101 to 1 µM.

Regarding `Cn1ncc2ccc(OCC(=O)NC[C@H](O)CN3Cc4ccccc4C3)cc21` [compound 27], the EC50 with Z-138 cells is above 20 µM; in assay [1], 1 to 10 µM.

Turning to `O=C(NC[C@H](O)CN1Cc2ccccc2C1)c1ccnc(NC2CCOCC2)c1` [compound 30], the concentration giving a half-maximal response (EC50) fell in the range of 1 to 10 µM in the assay on Z-138 cells and 0.101 to 1 µM in assay [1].

Take `O=C(NC[C@H](O)CN1Cc2ccccc2C1)c1cncc(NC2CCNC2)c1` (stereo partly shown) [compound 32]: the EC50 in the assay with Z-138 cells was above 20 µM; in assay [1], 1 to 10 µM.

As for `CS(=O)(=O)N1CCC(Nc2cncc(C(=O)NC[C@H](O)CN3Cc4ccccc4C3)c2)C1` (stereo partly shown) [compound 33], the EC50 was above 20 µM with Z-138 cells and 0.101 to 1 µM in assay [1].

In the assay with Z-138 cells, `CC(=O)N1CCC(Nc2cc(C(=O)NC[C@H](O)CN3Cc4ccccc4C3)ncn2)CC1` [compound 39] had an EC50 of 0.101 to 1 µM. Further, the 50% inhibitory concentration (IC50) on PRMT5/MEP50 is below 0.1 µM.

Compound `CC(=O)N1CC(Nc2cc(C(=O)NC[C@H](O)CN3CCc4ccccc43)ncn2)C1` [compound 41] gave an EC50 with Z-138 cells of 10 to 50 µM. Moreover, the IC50 on PRMT5/MEP50 was in the range of 1 to 10 µM.

By EC50 is commonly meant the concentration at which the effect is half-maximal. The term IC50 denotes the concentration that gives 50% inhibition.

These data come from patent US10118918B2, “PRMT5 inhibitors and uses thereof” (Epizyme, Inc., priority 2012, dated 2018).
